Data published in patent US20240270821A1, “GIP/GLP1/GCG TRI-RECEPTOR AGONISTS AND USES THEREOF” (priority 2023, published 2024).
Starred links: 1 amine or outer side, 2 acyl side, 3 side chain; linkers in the order of their positions; H or OH if unused. Non-standard residues stand in square brackets, D forms with d. Residues, ends and D or L forms follow the SMILES beside them. Groups on a side chain read outwards from the residue. *: point of attachment. C18 diacid = O=C(O)CCCCCCCCCCCCCCCCC(=O)*; αMePhe(2-F) = C[C@](N)(Cc1ccccc1F)C(=O)O; γGlu = O=C(O)[C@H](CCC(=O)[*:2])N[*:1]; AEEA = NCCOCCOCC(=O)O; Aib = CC(C)(N)C(=O)O

How the values were obtained:
Type in all cases: cell-based
hGIPR [1] = biological target: T1, hGIPR (Homo sapiens, UniProt P48546); experiment: Functional cAMP activity in the presence of 1% HSA; conditions: read-out: cAMP Rel EC50, hGIPR
T1 sequence (P48546 22-466): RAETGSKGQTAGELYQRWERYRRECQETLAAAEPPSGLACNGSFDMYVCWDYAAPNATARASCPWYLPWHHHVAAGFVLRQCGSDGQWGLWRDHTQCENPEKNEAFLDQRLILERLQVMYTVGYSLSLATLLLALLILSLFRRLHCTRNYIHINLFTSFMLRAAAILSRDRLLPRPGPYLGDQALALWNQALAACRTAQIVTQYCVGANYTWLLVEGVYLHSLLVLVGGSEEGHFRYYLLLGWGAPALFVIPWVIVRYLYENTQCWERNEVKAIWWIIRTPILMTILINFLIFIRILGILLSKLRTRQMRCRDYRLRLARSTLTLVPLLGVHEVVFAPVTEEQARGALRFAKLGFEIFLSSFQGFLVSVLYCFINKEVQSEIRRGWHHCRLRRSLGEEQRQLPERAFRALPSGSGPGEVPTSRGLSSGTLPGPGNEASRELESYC

hGLP-1R [2] = biological target: T2, hGLP-1R (Homo sapiens, UniProt P43220); experiment: Functional cAMP activity in the presence of 1% HSA; conditions: read-out: cAMP Rel EC50, hGLP-1R
human GcgR = human GcgR (Homo sapiens, UniProt P47871); experiment: Functional cAMP activity in the presence of 1% HSA; conditions: read-out: cAMP Rel EC50, hGcgR
hGIPR [3] = biological target: T1, hGIPR; experiment: Functional cAMP activation in the presence of 0.1% casein (no HSA); conditions: read-out: Relative cAMP EC50, hGIPR;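 as to Relative cAMP EC50, hGIPR: intracellular cAMP rise after 30 min at 37 °C read by HTRF against a standard curve, scaled between buffer alone (0%) and top control ligand concentration (100%), four-parameter fit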;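 as to Relative cAMP EC50, hGLP-1R: intracellular cAMP rise after 30 min at 37 °C read by HTRF, normalized between buffer only (0%) and maximal control ligand (100%), four-parameter variable-slope fit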;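 as to Relative cAMP EC50, hGcgR: intracellular cAMP rise after 30 min at 37 °C, read by HTRF against a cAMP standard curve, scaled from buffer only (0%) to maximal control ligand response (100%)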
hGLP-1R [4] = biological target: T2, hGLP-1R; experiment: as above; conditions: read-out: Relative cAMP EC50, hGLP-1R
hGcgR = hGcgR (Homo sapiens, UniProt P47871); experiment: as above; conditions: read-out: Relative cAMP EC50, hGcgR;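 also: intracellular cAMP rise after 30 min at 37 °C, read by HTRF against a cAMP standard curve, scaled from buffer only (0%) to maximal control ligand response (100%)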
hGcgR, sequence (P47871 26-477): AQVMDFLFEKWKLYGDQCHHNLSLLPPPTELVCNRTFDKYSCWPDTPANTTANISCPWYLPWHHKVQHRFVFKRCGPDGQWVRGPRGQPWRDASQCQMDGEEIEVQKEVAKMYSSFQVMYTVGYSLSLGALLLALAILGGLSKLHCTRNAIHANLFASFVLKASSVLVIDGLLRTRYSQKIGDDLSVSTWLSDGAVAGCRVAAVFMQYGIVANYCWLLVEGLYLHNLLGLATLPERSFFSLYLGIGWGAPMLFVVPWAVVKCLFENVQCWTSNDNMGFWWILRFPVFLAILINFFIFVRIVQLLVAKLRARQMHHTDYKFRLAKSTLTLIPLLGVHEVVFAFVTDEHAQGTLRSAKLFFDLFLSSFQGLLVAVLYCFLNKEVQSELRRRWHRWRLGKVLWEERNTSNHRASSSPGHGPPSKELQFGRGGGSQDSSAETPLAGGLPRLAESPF

human GcgR, sequence (P47871 26-477): as above
T2 sequence (P43220 24-463): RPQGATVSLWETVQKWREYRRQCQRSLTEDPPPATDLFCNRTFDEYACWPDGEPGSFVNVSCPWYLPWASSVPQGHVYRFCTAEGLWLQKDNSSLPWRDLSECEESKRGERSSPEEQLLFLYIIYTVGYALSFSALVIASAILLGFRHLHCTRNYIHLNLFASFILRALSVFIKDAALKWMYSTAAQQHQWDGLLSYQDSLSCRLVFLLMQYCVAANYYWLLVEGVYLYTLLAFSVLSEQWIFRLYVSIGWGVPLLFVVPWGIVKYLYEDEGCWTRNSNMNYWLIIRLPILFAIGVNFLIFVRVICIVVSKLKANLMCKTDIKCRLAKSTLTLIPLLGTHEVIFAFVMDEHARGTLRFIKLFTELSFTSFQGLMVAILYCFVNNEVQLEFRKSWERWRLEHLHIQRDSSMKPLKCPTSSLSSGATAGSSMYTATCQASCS

| Compound | EC50 (hGIPR [1]) | EC50 (hGLP-1R [2]) | EC50 (human GcgR) | EC50 (hGIPR [3]) | EC50 (hGLP-1R [4]) | EC50 (hGcgR) |
| --- | --- | --- | --- | --- | --- | --- |
| CC[C@H](C)[C@H](NC(=O)[C@H](Cc1ccccc1)NC(=O)[C@H](C)NC(=O)C(C)(C)NC(=O)[C@H](CCC(N)=O)NC(=O)[C@H](C)NC(=O)[C@H](CCCCNC(=O)CC[C@H](NC(=O)CC[C@H](NC(=O)CCCCCCCCCCCCCCCCC(=O)O)C(=O)O)C(=O)O)NC(=O)[C@H](CCCCN)NC(=O)[C@H](CC(=O)O)NC(=O)[C@H](CC(C)C)NC(=O)[C@H](CC(C)C)NC(=O)[C@@H](NC(=O)[C@H](CO)NC(=O)[C@H](Cc1ccc(O)cc1)NC(=O)[C@H](CC(=O)O)NC(=O)[C@H](CO)NC(=O)[C@@H](NC(=O)[C@](C)(Cc1ccccc1F)NC(=O)[C@@H](NC(=O)CNC(=O)[C@H](CCC(N)=O)NC(=O)C(C)(C)NC(=O)[C@@H](N)Cc1c[nH]cn1)[C@@H](C)O)[C@@H](C)O)[C@@H](C)CC)C(=O)N[C@@H](CCC(=O)O)C(=O)N[C@@H](Cc1ccc(O)cc1)C(=O)N[C@@H](CC(C)C)C(=O)N[C@@H](CCC(=O)O)C(=O)N[C@@H](CCC(=O)O)C(=O)NCC(=O)NCC(=O)N1CCC[C@H]1C(=O)N[C@@H](CO)C(=O)N[C@@H](CO)C(=O)NCC(=O)N[C@@H](C)C(=O)N1CCC[C@H]1C(=O)N1CCC[C@H]1C(=O)N1CCC[C@H]1C(=O)N[C@@H](CO)C(N)=O [Example 426] (H-H[Aib]QGT[αMePhe(2-F)]TSDYSILLDKK([γGlu-γGlu-C18 diacid])AQ[Aib]AFIEYLEEGGPSSGAPPPS-NH2) | 29.8 nM | 16.6 nM | 740 nM | 0.079 nM | 0.139 nM | 4.33 nM |
| CC[C@H](C)[C@H](NC(=O)[C@H](CO)NC(=O)[C@H](Cc1ccc(O)cc1)NC(=O)[C@H](CC(=O)O)NC(=O)[C@H](CO)NC(=O)[C@@H](NC(=O)[C@](C)(Cc1ccccc1F)NC(=O)[C@@H](NC(=O)CNC(=O)[C@H](CCC(N)=O)NC(=O)C(C)(C)NC(=O)[C@@H](N)Cc1ccc(O)cc1)[C@@H](C)O)[C@@H](C)O)C(=O)N[C@@H](CC(C)C)C(=O)N[C@@H](CC(C)C)C(=O)N[C@@H](CC(=O)O)C(=O)N[C@@H](CCCN)C(=O)N[C@@H](CCCCNC(=O)COCCOCCNC(=O)COCCOCCNC(=O)CC[C@H](NC(=O)CCCCCCCCCCCCCCCCC(=O)O)C(=O)O)C(=O)N[C@@H](C)C(=O)N[C@@H](CCC(N)=O)C(=O)NC(C)(C)C(=O)N[C@@H](C)C(=O)N[C@@H](Cc1ccccc1)C(=O)N[C@H](C(=O)N[C@H](CCC(=O)O)C(=O)N[C@@H](Cc1ccc(O)cc1)C(=O)N[C@@H](CC(C)C)C(=O)N[C@@H](CC(C)C)C(=O)N[C@@H](CCC(=O)O)C(=O)NCC(=O)NCC(=O)N1CCC[C@H]1C(=O)N[C@@H](CO)C(=O)N[C@@H](CO)C(=O)NCC(=O)N[C@@H](C)C(=O)N1CCC[C@H]1C(=O)N1CCC[C@H]1C(=O)N1CCC[C@H]1C(=O)N[C@@H](CO)C(N)=O)[C@@H](C)CC [Example 427] | 4.25 nM | 42.9 nM | 1440 nM | 0.0121 nM | 0.282 nM | 3.81 nM |
| CC[C@H](C)[C@H](NC(=O)[C@H](CO)NC(=O)[C@H](Cc1ccc(O)cc1)NC(=O)[C@H](CC(=O)O)NC(=O)[C@H](CO)NC(=O)[C@@H](NC(=O)[C@](C)(Cc1ccccc1F)NC(=O)[C@@H](NC(=O)CNC(=O)[C@H](CCC(N)=O)NC(=O)C(C)(C)NC(=O)[C@@H](N)Cc1ccc(O)cc1)[C@@H](C)O)[C@@H](C)O)C(=O)N[C@@H](CC(C)C)C(=O)N[C@@H](CC(C)C)C(=O)N[C@@H](CC(=O)O)C(=O)N[C@@H](CCCN)C(=O)N[C@@H](CCCCNC(=O)CC[C@H](NC(=O)CC[C@H](NC(=O)CCCCCCCCCCCCCCCCC(=O)O)C(=O)O)C(=O)O)C(=O)N[C@@H](C)C(=O)N[C@@H](CCC(N)=O)C(=O)NC(C)(C)C(=O)N[C@@H](C)C(=O)N[C@@H](Cc1ccccc1)C(=O)N[C@H](C(=O)N[C@H](CCC(=O)O)C(=O)N[C@@H](Cc1ccc(O)cc1)C(=O)N[C@@H](CC(C)C)C(=O)N[C@@H](CC(C)C)C(=O)N[C@@H](CCC(=O)O)C(=O)NCC(=O)NCC(=O)N1CCC[C@H]1C(=O)N[C@@H](CO)C(=O)N[C@@H](CO)C(=O)NCC(=O)N[C@@H](C)C(=O)N1CCC[C@H]1C(=O)N1CCC[C@H]1C(=O)N1CCC[C@H]1C(=O)N[C@@H](CO)C(N)=O)[C@@H](C)CC [Example 428] | 4.55 nM | 38.2 nM | 536 nM | 0.01 nM | 0.207 nM | 2.35 nM |
| CC[C@H](C)[C@H](NC(=O)[C@H](CCCCN)NC(=O)[C@H](CC(=O)O)NC(=O)[C@H](CC(C)C)NC(=O)[C@H](CC(C)C)NC(=O)[C@@H](NC(=O)[C@H](CO)NC(=O)[C@H](Cc1ccc(O)cc1)NC(=O)[C@H](CC(=O)O)NC(=O)[C@H](CO)NC(=O)[C@@H](NC(=O)[C@](C)(Cc1ccccc1F)NC(=O)[C@@H](NC(=O)CNC(=O)[C@H](CCC(N)=O)NC(=O)C(C)(C)NC(=O)[C@@H](N)Cc1ccc(O)cc1)[C@@H](C)O)[C@@H](C)O)[C@@H](C)CC)C(=O)N[C@@H](C)C(=O)N[C@@H](CCC(N)=O)C(=O)NC(C)(C)C(=O)N[C@@H](C)C(=O)N[C@@H](Cc1ccccc1)C(=O)N[C@H](C(=O)N[C@@H](CCCCNC(=O)COCCOCCNC(=O)CC[C@H](NC(=O)CCCCCCCCCCCCCCCCC(=O)O)C(=O)O)C(=O)N[C@@H](Cc1ccc(O)cc1)C(=O)N[C@@H](CC(C)C)C(=O)N[C@@H](CCC(=O)O)C(=O)N[C@@H](CCC(=O)O)C(=O)NCC(=O)NCC(=O)N1CCC[C@H]1C(=O)N[C@@H](CO)C(=O)N[C@@H](CO)C(=O)NCC(=O)N[C@@H](C)C(=O)N1CCC[C@H]1C(=O)N1CCC[C@H]1C(=O)N1CCC[C@H]1C(=O)N[C@@H](CO)C(N)=O)[C@@H](C)CC [Example 430] (H-Y[Aib]QGT[αMePhe(2-F)]TSDYSILLDKIAQ[Aib]AFIK([AEEA-γGlu-C18 diacid])YLEEGGPSSGAPPPS-NH2; N-terminus assumed) | 4.65 nM | 78.9 nM | 559 nM | 0.0144 nM | 0.438 nM | 2.11 nM |
| CC[C@H](C)[C@H](NC(=O)[C@H](Cc1ccccc1)NC(=O)[C@H](C)NC(=O)C(C)(C)NC(=O)[C@H](CCC(N)=O)NC(=O)[C@H](C)NC(=O)[C@H](CCCCNC(=O)COCCOCCNC(=O)CC[C@H](NC(=O)CCCCCCCCCCCCCCCCC(=O)O)C(=O)O)NC(=O)[C@H](CCCCN)NC(=O)[C@H](CC(=O)O)NC(=O)[C@H](CC(C)C)NC(=O)[C@](C)(CC(C)C)NC(=O)[C@@H](NC(=O)[C@H](CO)NC(=O)[C@H](Cc1ccc(O)cc1)NC(=O)[C@H](CC(=O)O)NC(=O)[C@H](CO)NC(=O)[C@@H](NC(=O)[C@](C)(Cc1ccccc1F)NC(=O)[C@@H](NC(=O)CNC(=O)[C@H](CCC(N)=O)NC(=O)C(C)(C)NC(=O)[C@@H](N)Cc1ccc(O)cc1)[C@@H](C)O)[C@@H](C)O)[C@@H](C)CC)C(=O)N[C@@H](CCC(=O)O)C(=O)N[C@@H](Cc1ccc(O)cc1)C(=O)N[C@@H](CC(C)C)C(=O)N[C@@H](CCC(=O)O)C(=O)N[C@@H](CCC(=O)O)C(=O)NCC(=O)NCC(=O)N1CCC[C@H]1C(=O)N[C@@H](CO)C(=O)N[C@@H](CO)C(=O)NCC(=O)N[C@@H](C)C(=O)N1CCC[C@H]1C(=O)N1CCC[C@H]1C(=O)N1CCC[C@H]1C(=O)N[C@@H](CO)C(=O)N[C@@H](CCC(=O)O)C(=O)NCC(N)=O [Example 431] | 3.73 nM | 35.2 nM | 352 nM | 0.0157 nM | 0.392 nM | 3.32 nM |
| CC[C@H](C)[C@H](NC(=O)[C@H](Cc1ccccc1)NC(=O)[C@H](C)NC(=O)C(C)(C)NC(=O)[C@H](CCC(N)=O)NC(=O)[C@H](C)NC(=O)[C@H](CCCCNC(=O)CC[C@H](NC(=O)CC[C@H](NC(=O)CCCCCCCCCCCCCCCCC(=O)O)C(=O)O)C(=O)O)NC(=O)[C@H](CCCCN)NC(=O)[C@H](CC(=O)O)NC(=O)[C@H](CC(C)C)NC(=O)[C@H](CC(C)C)NC(=O)[C@@H](NC(=O)[C@H](CO)NC(=O)[C@H](Cc1ccc(O)cc1)NC(=O)[C@H](CC(=O)O)NC(=O)[C@H](CO)NC(=O)[C@@H](NC(=O)[C@](C)(Cc1ccccc1F)NC(=O)[C@@H](NC(=O)CNC(=O)[C@H](CCC(N)=O)NC(=O)C(C)(C)NC(=O)[C@@H](N)Cc1ccc(O)cc1)[C@@H](C)O)[C@@H](C)O)[C@@H](C)CC)C(=O)N[C@@H](CCC(=O)O)C(=O)N[C@@H](Cc1ccc(O)cc1)C(=O)N[C@@H](CC(C)C)C(=O)N[C@@H](CCC(=O)O)C(=O)N[C@@H](CCC(=O)O)C(=O)NCC(=O)NCC(=O)N1CCC[C@H]1C(=O)N[C@@H](CO)C(=O)N[C@@H](CO)C(=O)NCC(=O)N[C@@H](C)C(=O)N1CCC[C@H]1C(=O)N1CCC[C@H]1C(=O)N1CCC[C@H]1C(=O)N[C@@H](CO)C(=O)N[C@@H](CCC(=O)O)C(N)=O [Example 433] (H-Y[Aib]QGT[αMePhe(2-F)]TSDYSILLDKK([γGlu-γGlu-C18 diacid])AQ[Aib]AFIEYLEEGGPSSGAPPPSE-NH2; N-terminus assumed) | 15.3 nM | 43.4 nM | 532 nM | 0.0206 nM | 0.273 nM | 5.78 nM |
